Target: T1, hROMK (hKir1.1) (Homo sapiens, UniProt P48048)
T1 construct: expressed in transfected cells
T1 sequence (P48048 1-391): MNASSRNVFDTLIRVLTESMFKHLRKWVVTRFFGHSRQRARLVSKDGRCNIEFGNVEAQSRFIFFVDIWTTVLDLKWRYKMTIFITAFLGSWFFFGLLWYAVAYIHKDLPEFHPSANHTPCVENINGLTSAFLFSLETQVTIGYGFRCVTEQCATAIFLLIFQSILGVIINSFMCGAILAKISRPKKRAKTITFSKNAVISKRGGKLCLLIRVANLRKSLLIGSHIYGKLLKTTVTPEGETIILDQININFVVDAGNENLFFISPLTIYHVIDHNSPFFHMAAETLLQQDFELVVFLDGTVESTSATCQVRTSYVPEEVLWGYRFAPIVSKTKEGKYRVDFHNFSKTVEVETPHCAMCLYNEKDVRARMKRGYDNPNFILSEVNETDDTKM
Test: Thallium Flux Assay (ROMK channel functional thallium flux, FLIPR-Tetra)
Assay type: cell-based
Details: HEK293 cells stably expressing hROMK (hKir1.1); 30 min compound incubation
How it was run: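 Thallium flux read by FluxOR fluorescence ([…]) for ~10 min after adding 3 mM Tl+/0.3 mM K+ final. Stable HEK-hKir1.1 cells were dye-loaded 90 min, exposed to compound 30 min at room temperature in ouabain/probenecid buffer; IC50 relative to a 3 μM control inhibitor.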

Row | IC50 | Compound
1 | 60 nM | CO[C@H](CN1CCC2(CC1)C[C@@H](C)N(C1=CC(=O)OC1)C2=O)c1cnc(-n2cnnn2)cn1 (single isomer, unassigned) [Example 286]
2 | 90 nM | CC1=C(N2CCC3(CCN(C[C@H](C)c4ccc(-n5cnnn5)nn4)CC3)C2=O)COC1=O (single isomer, unassigned) [Example 290]
3 | 80 nM | CC1=C(N2CCC3(CCN(C[C@@H](C)c4ccc(-n5cnnn5)nn4)CC3)C2=O)COC1=O (single isomer, unassigned) [Example 291]
4 | 10 nM | CC1=C(N2CCC3(CCN([C@@H](C)Cc4ccc(-n5cnnn5)nn4)CC3)C2=O)COC1=O (single isomer, unassigned) [Example 293]
5 | 4 nM | CC1=C(N2CCC3(CCN([C@H](C)Cc4ccc(-n5cnnn5)nn4)CC3)C2=O)COC1=O (single isomer, unassigned) [Example 294]
6 | 20 nM | CC1=C(N2CCC3(CCN(C(CO)Cc4ccc(-n5cnnn5)nc4)CC3)C2=O)COC1=O (single isomer, unassigned) [Example 295]
7 | 20 nM | CC1=C(N2CCC3(CCN([C@H](CO)Cc4ccc(-n5cnnn5)nc4)CC3)C2=O)COC1=O (single isomer, unassigned) [Example 296]
8 | 10 nM | CC1=C(N2CCC3(CCN(C(C)(C)C(O)c4ccc(-n5cnnn5)nc4)CC3)C2=O)COC1=O (single isomer, unassigned) [Example 297]
9 | 10 nM | CC1=C(N2CCC3(CCN(C(C)(C)C(O)c4ccc(-n5cnnn5)nc4)CC3)C2=O)COC1=O (single isomer, unassigned) [Example 298]
10 | 10 nM | CC1=C(N2CCC3(CCN(C(C)(C)C(O)c4ccc(-n5cnnn5)cn4)CC3)C2=O)COC1=O (single isomer, unassigned) [Example 299]
11 | 20 nM | CC1=C(N2CCC3(CCN(C(C)(C)C(O)c4ccc(-n5cnnn5)cn4)CC3)C2=O)COC1=O (single isomer, unassigned) [Example 300]
12 | 10 nM | CC1CC2(CCN(C(C)(C)C(O)c3cnc(-n4cnnn4)cn3)CC2)C(=O)N1C1=CC(=O)OC1 (single isomer, unassigned) [Example 301, 8-(1-(5-(1H-tetrazol-1-yl)pyrazin-2-yl)-1-hydroxy-2-methylpropan-2-yl)-3-methyl-2-(5-oxo-2,5-dihydrofuran-3-yl)-2,8-diazaspiro[4.5]decan-1-one]
13 | 100 nM | CC1CC2(CCN(C(C)(C)C(O)c3cnc(-n4cnnn4)cn3)CC2)C(=O)N1C1=CC(=O)OC1 (single isomer, unassigned) [Example 302, 8-(1-(5-(1H-tetrazol-1-yl)pyrazin-2-yl)-1-hydroxy-2-methylpropan-2-yl)-3-methyl-2-(5-oxo-2,5-dihydrofuran-3-yl)-2,8-diazaspiro[4.5]decan-1-one]
14 | 2000 nM | CC1CC2(CCN(C(C)(C)C(O)c3cnc(-n4cnnn4)cn3)CC2)C(=O)N1C1=CC(=O)OC1 (single isomer, unassigned) [Example 303, 8-(1-(5-(1H-tetrazol-1-yl)pyrazin-2-yl)-1-hydroxy-2-methylpropan-2-yl)-3-methyl-2-(5-oxo-2,5-dihydrofuran-3-yl)-2,8-diazaspiro[4.5]decan-1-one]
15 | 910 nM | CC1CC2(CCN(C(C)(C)C(O)c3cnc(-n4cnnn4)cn3)CC2)C(=O)N1C1=CC(=O)OC1 (single isomer, unassigned) [Example 304, 8-(1-(5-(1H-tetrazol-1-yl)pyrazin-2-yl)-1-hydroxy-2-methylpropan-2-yl)-3-methyl-2-(5-oxo-2,5-dihydrofuran-3-yl)-2,8-diazaspiro[4.5]decan-1-one]
16 | 40 nM | CC1=C(N2CCC3(CCN(C[C@H](O)c4cnc(-n5cnnn5)cc4C(F)F)CC3)C2=O)COC1=O (stereo in doubt) [Example 147, 8-{2-[4-(difluoromethyl)-6-(1H-tetrazol-1-yl)pyridin-3-yl]-2-hydroxyethyl}-2-(4-methyl-5-oxo-2,5-dihydrofuran-3-yl)-2,8-diazaspiro[4.5]decan-1-one]
